This passage reports IC50 results from patent publication US20190231751A1, “TREATMENT OF FIBROTIC DISORDERS WITH JUN N-TERMINAL KINASE INHIBITORS” (Imago Pharmaceuticals, Inc., priority 2016, published 2019).

Format in all cases: biochemical
The target of one assay is JNK3 (Homo sapiens, UniProt P53779). The assay is described as follows: In vitro JNK3 inhibition (Table 1). On the procedure: (§1) In vitro assays for the determination of JNK activities are known in the art and exemplary assay formats are described herein.
(§2) IC50 values in Table 1 were determined using the procedures as described in U.S. Pat. No. 8,450,353.

The target in the next assay is JNK1 (Homo sapiens, UniProt P45983). The assay is described as follows: In vitro JNK1 inhibition (Table 1). On the procedure:
as §1, §2

A further assay has as its target JNK2 (Homo sapiens, UniProt P45984). The experiment in a line: In vitro JNK2 inhibition (Table 1). On the procedure: as §1, §2

Each structure is given as a SMILES string. Bounds are passed on as bounds.

Sequence of JNK3 (P53779 whole entry, species assumed): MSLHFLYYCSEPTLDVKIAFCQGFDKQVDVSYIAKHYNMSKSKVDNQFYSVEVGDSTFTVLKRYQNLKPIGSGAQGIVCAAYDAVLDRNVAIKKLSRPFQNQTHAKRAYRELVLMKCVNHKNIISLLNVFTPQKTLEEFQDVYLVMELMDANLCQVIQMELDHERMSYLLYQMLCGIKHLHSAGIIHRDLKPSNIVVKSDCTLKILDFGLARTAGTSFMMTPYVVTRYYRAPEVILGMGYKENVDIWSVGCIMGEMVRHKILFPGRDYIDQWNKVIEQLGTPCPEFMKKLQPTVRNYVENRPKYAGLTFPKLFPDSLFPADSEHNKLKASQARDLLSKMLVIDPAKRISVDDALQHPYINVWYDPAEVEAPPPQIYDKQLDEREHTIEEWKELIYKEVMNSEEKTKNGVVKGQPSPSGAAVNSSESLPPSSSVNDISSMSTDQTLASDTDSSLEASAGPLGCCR
Sequence of JNK1 (P45983 whole entry, species assumed): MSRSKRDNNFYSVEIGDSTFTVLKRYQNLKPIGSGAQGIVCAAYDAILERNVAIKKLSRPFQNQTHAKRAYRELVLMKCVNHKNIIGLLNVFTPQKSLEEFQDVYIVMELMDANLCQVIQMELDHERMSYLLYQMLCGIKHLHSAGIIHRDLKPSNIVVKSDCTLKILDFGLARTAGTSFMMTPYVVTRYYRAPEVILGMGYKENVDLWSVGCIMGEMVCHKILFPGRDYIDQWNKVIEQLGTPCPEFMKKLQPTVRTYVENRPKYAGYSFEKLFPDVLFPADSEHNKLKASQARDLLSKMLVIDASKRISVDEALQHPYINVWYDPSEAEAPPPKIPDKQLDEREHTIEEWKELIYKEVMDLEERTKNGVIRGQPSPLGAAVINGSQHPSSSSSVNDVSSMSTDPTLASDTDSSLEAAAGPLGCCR
Sequence of JNK2 (P45984 whole entry, species assumed): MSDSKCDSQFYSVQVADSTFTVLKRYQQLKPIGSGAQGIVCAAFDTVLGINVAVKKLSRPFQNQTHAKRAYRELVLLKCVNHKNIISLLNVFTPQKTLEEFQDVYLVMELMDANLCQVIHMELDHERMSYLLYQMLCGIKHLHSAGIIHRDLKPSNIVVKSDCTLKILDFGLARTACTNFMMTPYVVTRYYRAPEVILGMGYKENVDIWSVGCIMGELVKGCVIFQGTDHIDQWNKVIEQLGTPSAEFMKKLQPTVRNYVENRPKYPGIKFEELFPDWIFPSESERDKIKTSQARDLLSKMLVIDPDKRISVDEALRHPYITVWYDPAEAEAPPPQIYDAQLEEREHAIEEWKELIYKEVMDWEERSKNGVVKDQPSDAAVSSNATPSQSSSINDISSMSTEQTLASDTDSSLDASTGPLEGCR

A word on the IC50: it is the concentration at which inhibition is half-maximal. As for `N#Cc1csc(NC(=O)Cc2cccc3cnccc23)c1-c1ncn[nH]1` [N-(4-cyano-3-(1H-1,2,4-triazol-5-yl)thiophen-2-yl)-2-(isoquinolin-5-yl)acetamide], the IC50 at JNK3, on JNK1 and against JNK2 was under 100 nM each time.
For the compound `N#Cc1csc(NC(=O)Cn2c(=O)ccc3cc(C(F)(F)F)ccc32)c1-c1ncco1` [N-(4-cyano-3-(oxazol-2-yl)thiophen-2-yl)-2-(2-oxo-6-(trifluoromethyl)quinolin-1(2H)-yl)acetamide], the IC50 against JNK3, against JNK1 and against JNK2 was under 100 nM throughout.
As for `O=C(Cc1cccc2cnccc12)Nc1scc(Br)c1-c1ncn[nH]1` [N-(4-bromo-3-(1H-1,2,4-triazol-5-yl)thiophen-2-yl)-2-(isoquinolin-5-yl)acetamide], the IC50 at JNK3, at JNK1 and against JNK2 was under 100 nM each time.
Turning to `Cn1cnc(-c2c(Cl)csc2NC(=O)Cn2c(=O)ccc3nc(C(F)(F)F)ccc32)n1` [N-(4-chloro-3-(1-methyl-1H-1,2,4-triazol-3-yl)thiophen-2-yl)-2-(2-oxo-6-(trifluoromethyl)-1,5-naphthyridin-1(2H)-yl)acetamide], the IC50 on JNK3, on JNK1 and against JNK2 was under 100 nM throughout.
For `O=C(Cn1c(=O)ccc2cc(C(F)(F)F)ccc21)Nc1scc(Cl)c1-c1ncn(CCCN2CCOCC2)n1` [N-(4-chloro-3-(1-(3-morpholinopropyl)-1H-1,2,4-triazol-3-yl)thiophen-2-yl)-2-(2-oxo-6-(trifluoromethyl)quinolin-1(2H)-yl)acetamide], the IC50 against JNK3, against JNK1 and on JNK2 was under 100 nM in each case.
Take `Cc1n[nH]c(-c2c(Cl)csc2NC(=O)CN2C(=O)CCc3ncccc32)n1` [N-(4-chloro-3-(3-methyl-1H-1,2,4-triazol-5-yl)thiophen-2-yl)-2-(2-oxo-3,4-dihydro-1,5-naphthyridin-1(2H)-yl)acetamide]: the IC50 against JNK3, at JNK1 and against JNK2 was under 100 nM each time.
`N#Cc1csc(NC(=O)Cn2c(=O)ccc3cc(C(F)(F)F)ccc32)c1-c1nccs1` [N-(4-cyano-3-(thiazol-2-yl)thiophen-2-yl)-2-(2-oxo-6-(trifluoromethyl)quinolin-1(2H)-yl)acetamide]: the IC50 on JNK3, at JNK1 and at JNK2 was under 100 nM in each case.
For the compound `O=C(Cc1cccc2cnccc12)Nc1scc(Cl)c1-c1ncn[nH]1` [N-(4-chloro-3-(1H-1,2,4-triazol-5-yl)thiophen-2-yl)-2-(isoquinolin-5-yl)acetamide], the IC50 against JNK3, against JNK1 and on JNK2 was under 100 nM throughout.
Consider `O=C(Cn1c(=O)ccn2nccc12)Nc1scc(Br)c1-c1ncn[nH]1` [N-(4-bromo-3-(1H-1,2,4-triazol-5-yl)thiophen-2-yl)-2-(5-oxopyrazolo[1,5-a]pyrimidin-4(5H)-yl)acetamide], for which the IC50 against JNK3, on JNK1 and at JNK2 was under 100 nM in each case.
For the compound `O=C(Cn1c(=O)ccc2cc(Br)ccc21)Nc1scc(Cl)c1-c1nc[nH]n1` [2-(6-bromo-2-oxoquinolin-1(2H)-yl)-N-(4-chloro-3-(1H-1,2,4-triazol-3-yl)thiophen-2-yl)acetamide], the IC50 at JNK3, at JNK1 and against JNK2 was under 100 nM throughout.
For `O=C(CN1C(=O)CCc2ncccc21)Nc1scc(Cl)c1-c1nccs1` [N-(4-chloro-3-(thiazol-2-yl)thiophen-2-yl)-2-(2-oxo-3,4-dihydro-1,5-naphthyridin-1(2H)-yl)acetamide], the IC50 against JNK3, against JNK1 and against JNK2 was under 100 nM throughout.
Consider `Cn1cnc(-c2c(Cl)csc2NC(=O)Cn2c(=O)ccn3nc(C(F)(F)F)cc23)n1` [N-(4-chloro-3-(1-methyl-1H-1,2,4-triazol-3-yl)thiophen-2-yl)-2-(5-oxo-2-(trifluoromethyl)pyrazolo[1,5-a]pyrimidin-4(5H)-yl)acetamide], for which the IC50 at JNK3, against JNK1 and on JNK2 was under 100 nM in each case.
Turning to `O=C(Cn1c(=O)ccc2cc(C(F)(F)F)ccc21)Nc1scc(Br)c1-n1nccn1` [N-(4-bromo-3-(2H-1,2,3-triazol-2-yl)thiophen-2-yl)-2-(2-oxo-6-(trifluoromethyl)quinolin-1(2H)-yl)acetamide], the IC50 was under 100 nM against JNK3, 100 to 10000 nM on JNK1 and under 100 nM against JNK2.
In the case of `O=C(Cn1c(=O)ccc2cc(C(F)(F)F)ccc21)Nc1sc(Cl)cc1-c1ncn[nH]1` [N-(5-chloro-3-(1H-1,2,4-triazol-5-yl)thiophen-2-yl)-2-(2-oxo-6-(trifluoromethyl)quinolin-1(2H)-yl)acetamide], the IC50 against JNK3 and against JNK2 was 100 to 10000 nM throughout.
In the case of `O=C(Cn1c(=O)ccc2cc(C(F)(F)F)ccc21)N(CCCN1CCCC1)c1scc(Cl)c1-c1nc[nH]n1` [N-(4-chloro-3-(1H-1,2,4-triazol-3-yl)thiophen-2-yl)-2-(2-oxo-6-(trifluoromethyl)quinolin-1(2H)-yl)-N-(3-(pyrrolidin-1-yl)propyl)acetamide], the IC50 on JNK3, at JNK1 and against JNK2 was 100 to 10000 nM in each case.
Regarding `O=C(Cn1c(=O)ccc2c(F)cccc21)Nc1scc(Br)c1-c1ncn[nH]1` [N-(4-bromo-3-(1H-1,2,4-triazol-5-yl)thiophen-2-yl)-2-(5-fluoro-2-oxoquinolin-1(2H)-yl)acetamide], the IC50 at JNK3, against JNK1 and against JNK2 was under 100 nM throughout.
On to `Cn1cnc(-c2c(Cl)csc2NC(=O)Cn2c(=O)ccn3nccc23)n1` [N-(4-chloro-3-(1-methyl-1H-1,2,4-triazol-3-yl)thiophen-2-yl)-2-(5-oxopyrazolo[1,5-a]pyrimidin-4(5H)-yl)acetamide], for which the IC50 against JNK3, against JNK1 and at JNK2 was under 100 nM each time.
Turning to `O=C(Cn1c(=O)ccc2cc(C(F)(F)F)ccc21)Nc1scc(Cl)c1-c1ncn(CCCN2CCCC2)n1` [N-(4-chloro-3-(1-(3-(pyrrolidin-1-yl)propyl)-1H-1,2,4-triazol-3-yl)thiophen-2-yl)-2-(2-oxo-6-(trifluoromethyl)quinolin-1(2H)-yl)acetamide], the IC50 on JNK3, at JNK1 and against JNK2 was under 100 nM throughout.
As to `O=C(Cn1c(=O)ccn2nc(C(F)(F)F)cc12)Nc1scc(Cl)c1-c1ncn[nH]1` [N-(4-chloro-3-(1H-1,2,4-triazol-5-yl)thiophen-2-yl)-2-(5-oxo-2-(trifluoromethyl)pyrazolo[1,5-a]pyrimidin-4(5H)-yl)acetamide], the IC50 on JNK3, against JNK1 and on JNK2 was under 100 nM throughout.
In turn, `COc1ccc(CC(=O)Nc2sccc2-c2nn[nH]n2)cc1` [N-(3-(2H-tetrazol-5-yl)thiophen-2-yl)-2-(4-methoxyphenyl)-acetamide] had an IC50 at JNK2 of 10000 to 50000 nM.
Still for that read-out and setting: the value for `COc1ccc(CC(=O)Nc2ccsc2-c2nc(N)n[nH]2)cc1` [N-(2-(3-amino-1H-1,2,4-triazol-5-yl)thiophen-3-yl)-2-(4-methoxyphenyl)acetamide] was 100 to 10000 nM; that for `COc1ccc(CC(=O)Nc2ccsc2-c2ncco2)cc1` [2-(4-methoxyphenyl)-N-(2-(oxazol-2-yl)thiophen-3-yl)acetamide] was 10000 to 50000 nM.
The compound `O=C(Cc1cccc2cnccc12)Nc1ccsc1-c1csc(Cl)n1` [N-(2-(2-chlorothiazol-4-yl)thiophen-3-yl)-2-(isoquinolin-5-yl)acetamide] came in with an IC50 at JNK2 of 10000 to 50000 nM.
For the compound `COc1ccc(CC(=O)Nc2ccsc2-c2nc(C)n[nH]2)cc1` [2-(4-methoxyphenyl)-N-(2-(3-methyl-1H-1,2,4-triazol-5-yl)thiophen-3-yl)acetamide], the IC50 against JNK2 lay in the range of 100 to 10000 nM.
On the same count and under the same terms, the value for `COc1ccc(CC(=O)Nc2ccsc2-c2nc(C(C)(C)C)n[nH]2)cc1` [N-(2-(3-tert-butyl-1H-1,2,4-triazol-5-yl)thiophen-3-yl)-2-(4-methoxyphenyl)acetamide] was 10000 to 50000 nM.
On the same count and under the same terms, to `O=C(Cc1ccc2c(c1)OCCO2)Nc1ccsc1-c1ncn[nH]1` [N-(2-(1H-1,2,4-triazol-5-yl)thiophen-3-yl)-2-(2,3-dihydrobenzo[b][1,4]dioxin-6-yl)acetamide] belongs 100 to 10000 nM.
Same read-out and setting: to `COc1ccc(CC(=O)Nc2ccsc2-n2cc(C)cn2)cc1` [2-(4-methoxyphenyl)-N-(2-(4-methyl-1H-pyrazol-1-yl)thiophen-3-yl)acetamide] belongs 10000 to 50000 nM.
With `Cc1n[nH]c(-c2sccc2NC(=O)Cc2ccc(N3CCCC3=O)cc2)n1` [N-(2-(3-methyl-H-1,2,4-triazol-5-yl)thiophen-3-yl)-2-(4-(2-oxopyrrolidin-1-yl)phenyl)acetamide], the IC50 against JNK2 was 100 to 10000 nM.
On the same count and under the same terms, to `O=C(CN1C(=O)CCc2ccccc21)Nc1ccsc1-c1c[nH]cn1` [N-(2-(1H-imidazol-4-yl)thiophen-3-yl)-2-(2-oxo-3,4-dihydroquinolin-1(2H)-yl)acetamide] belongs 10000 to 50000 nM.
Regarding `COc1ccc(CC(=O)Nc2ccsc2-c2nc(C(F)(F)F)n[nH]2)cc1` [2-(4-methoxyphenyl)-N-(2-(3-(trifluoromethyl)-1H-1,2,4-triazol-5-yl)thiophen-3-yl)acetamide], the IC50 at JNK2 is 10000 to 50000 nM.
`Cc1csc(NC(=O)Cc2cccc3ncccc23)c1-c1ncn[nH]1` [N-(4-methyl-3-(1H-1,2,4-triazol-5-yl)thiophen-2-yl)-2-(quinolin-5-yl)acetamide] registered an IC50 against JNK2 of 100 to 10000 nM.
On the same count and under the same terms, the value for `O=C(Cc1cccc2ccccc12)Nc1ccsc1-c1nnco1` [N-(2-(1,3,4-oxadiazol-2-yl)thiophen-3-yl)-2-(naphthalen-1-yl)acetamide] was 10000 to 50000 nM.
